The results in this text go back to a melting point compilation (Tetko et al.; mined from patent text by program, amines drawn as free bases though some values may be those of a salt).

The term melting point denotes the temperature, or range, at which the solid turns liquid. Molecule `CCCCCCCCOc1cc2cc(CO)c(CO)c(-c3ccnc(NN)c3)c2cc1OC` yielded a melting point of 98 to 102 °C.
In the case of `CCOC(=O)C1=C(c2ccc(-n3c(C)nc4cnccc43)nc2)NC(C)=C(C(=O)Nc2ccccn2)C1c1ccccc1Cl` (stereo unspecified), the melting point lay in the range of 242 to 243 °C.
As for `C/C=C/C(=O)Nc1ccc2ncnc(Nc3cccc(Br)c3)c2c1`, the figure is 153 to 160 °C; as for `CN(C)S(=O)(=O)c1cc2[nH]c(=O)c(=O)[nH]c2cc1[N+](=O)[O-]`, 318 to 332 °C.
In the case of `N#Cc1cc(Br)c(C(=O)CCl)s1`, the melting point was 126 to 128 °C.
As to `CCSc1nc(-c2ccccc2)c(-c2ccccc2)s1`, the melting point was in the range of 73 to 74 °C.
Molecule `CC(=O)CC(=O)C=Cc1cc(O)ccc1Br` displayed a melting point of 185 to 188 °C.
Consider `O=C1CNc2ccccc2CN1`, for which the melting point is 167 to 170 °C.
As to `CCCCc1nc(CCC)n[nH]1`, the melting point was 48.5 to 50 °C.
`COC(=O)CCC(=O)c1ccc2c(c1)C(C)NC(=O)N2` (stereo unspecified) came in with a melting point of 142 to 150 °C.
The molecule `CCC(CC)c1nnc(S)n(N)c1=O` yielded a melting point of 162 to 164 °C.
`COc1ccc(C=Nc2c3c(nc4ccccc24)CCCC3)cc1`: the melting point was 160 to 162 °C.
Molecule `CC(=NNC(=N)N)c1cccc(OCc2ccc3ccccc3n2)c1` displayed a melting point of 57 to 59 °C.
Regarding `OC(c1ccc(F)cc1)C1CC2CCN1CC2` (stereo unspecified), the melting point fell in the range of 69 to 70 °C.
With `CCOC(=O)c1c(N=[N+]=[N-])cc(C(F)(F)F)nc1C(F)(F)F`, the melting point was 63 to 64.5 °C.
As to `O=S(=O)(O)c1ccc(NCc2ccc(Cl)cc2Cl)cc1`, the melting point was > 275 °C.
Molecule `CC(C)(C)OC(=O)N1CCN(c2cccc(-c3cnc4[nH]cc(C(=O)C5(C)CCCCC5)c4n3)c2)CC1` returned a melting point of 212 to 213 °C.
Take `CN(C(=O)C1(C(=O)O)CC1)c1ccc(Cl)cc1`: the melting point fell in the range of 156 to 158 °C.
As for `CCOC(=O)c1nnc(-c2ccc(Cl)cc2)o1`, the figure is 117 to 118 °C.
Consider `CCCN(Cc1ccc(-c2ccccc2-c2nnn[nH]2)cc1)c1ccncc1C(=O)O`, for which the melting point was in the range of 195 to 200 °C.
The figure for `O=C1CCCCCCC1F` (stereo unspecified) is 48.1 to 49.8 °C; for `CC(C)N(C1CCCCC1)S(=O)(=O)N[C@@H](Cc1ccc(Nc2nccc3cnccc23)cc1)C(=O)O` it is 162 °C.
Turning to `CC(C)(C)C(=O)Nc1nc(CC(=O)Nc2cccc(C(F)(F)F)c2)cs1`, the melting point is 147 to 152 °C.
In turn, `CC(C)(c1ccccc1)c1cc(C(C)(C)c2ccccc2)c(O)cc1O` registered a melting point of 130 °C.
As to `N#Cc1cnn2c(C(F)(F)F)cc(-c3cccnc3)nc12`, the melting point stood at 193 °C.
Molecule `NCc1cn(CCC(=O)O)c(=S)n1[C@H]1CCc2c(F)cc(F)cc2C1` had a melting point of 191 °C.
Regarding `CCC1=CC(C)(C)Oc2c(OC)cc(Cc3cnc(N)nc3N)cc21`, the melting point fell in the range of 256 to 257 °C.
The figure for `COc1ccc2c(c1)CCCC2n1cc[nH]c1=S` (stereo unspecified) is 190 to 192 °C.
The figure for `CC(=NNC(=O)C1CCCCC1)c1ccncc1` is 195 °C; for `CC(C)(C)OC(=O)C1CCN(C(=O)OCc2ccccc2)N1` (stereo unspecified) it is 55 to 57 °C.
In the case of `COc1cc(C(=O)N2CCN(C(=O)/C=C/c3cccc(-c4cc(OC)c(OC)c(OC)c4)c3)CC2)cc(OC)c1OC`, the melting point fell in the range of 149 to 151 °C.
Take `CSc1ccc(C=CC(=O)c2ccc(Br)cc2)cc1`: the melting point was found to be 161 °C.
With `Cc1ccc2c(c1)c(-c1ccc(F)cc1)c(C)n2C1CCN(CCN2CCNC2=O)CC1`, the melting point was 188 to 190 °C.
The figure for `Cc1nn(-c2c(Cl)cc(C(F)(F)F)cc2Cl)nc1CBr` is 98 to 100 °C; for `COc1ccc(C(=O)O)cc1OC1C=CCC1` (stereo unspecified) it is 160 to 163 °C.
As for `O=c1[nH]c(N2CCOCC2)nc2c1CC(S(=O)(=O)c1ccccc1)CC2` (stereo unspecified), the figure is > 250 °C.
In turn, `CNC1CCC2C3CCc4cc(OC)ccc4C3CCC12C` (stereo unspecified) showed a melting point of 136 to 137 °C.
With `Cc1c(O)cc2c(c1C)N(C=O)C(C)(C)C2`, the melting point fell in the range of 202 to 204 °C.
Molecule `CCOC(=O)c1cnc2c(-c3ccc(Cc4cccc(OC)c4)c(OC)c3)cnn2c1O` had a melting point of 226 to 238 °C.
On to `CCCCCCCCCCc1nnn(CC(=O)O)n1`, for which the melting point is 83 to 86 °C.
The figure for `O=C1NCC1NC(=O)C(C(=O)OCc1ccccc1)c1ccccc1` (stereo unspecified) is 164 to 166 °C; for `CC12CC(C#N)(CC1=O)C(C)(C)O2` (stereo unspecified) it is 74 to 76 °C; for `CCOC(=O)C(=NO)c1ccc(F)cc1` it is 117 to 118 °C.
As for `COc1ccccc1CN1CCN(CCN2CCC(O)(c3ccccc3)CC2)C(c2ccccc2)C1` (stereo unspecified), the figure is 63 to 65 °C; as for `CCOc1ccccc1OCC(O)CNC(C)=CC(=O)c1cccnc1` (single isomer, unassigned; (-)), 94 °C.
`CC1(C)CCC(C)(C)c2cc(-c3cc(-c4ccc(C(=O)NO)cc4)ccc3-c3ccccc3)ccc21` gave a melting point of 105 to 108 °C.
Regarding `CC(CCCc1ccccc1)c1cc(O)c2c3c(c(=O)oc2c1)CCC(=O)C3` (stereo unspecified), the melting point lay within 163 to 164 °C.
`CC(=O)OCC(C(OC(C)=O)c1cccc(F)c1)[N+](=O)[O-]` (stereo unspecified) displayed a melting point of 94 °C.
On to `NCCOc1ccc(CC2SC(=O)NC2=O)cc1` (stereo unspecified), for which the melting point lay in the range of 175 to 176 °C.
Molecule `CCC(C(=O)N(C)C)n1cc(C)c(-c2ccc(Cl)cc2C)n1` (stereo unspecified) returned a melting point of 89 to 92 °C.
With `CSc1nn(C(C)(C)C)c(=O)c(Cl)c1C1C=CC(C(C)(C)C)CC1` (stereo unspecified), the melting point lay in the range of 82 to 84 °C.
`CN1C(=O)C(C)(C)C(=O)N(C)c2ccccc21` displayed a melting point of 159 to 160 °C.
The figure for `O=C(N1CCCC1)C(CCN1CCC(O)(c2ccccc2)CC1)(c1ccccc1)c1ccccc1` is 188 °C.
On to `O=C(O)Cn1c(=O)c(=O)[nH]c2cc([N+](=O)[O-])ccc21`, for which the melting point is > 320 °C.
With `O=C(C=Cc1ccccc1O)OCCc1ccccc1`, the melting point was determined as 40 °C.
The molecule `COC(=O)CCNC(=O)C1CCCN1S(=O)(=O)c1ccc(Cl)c(COc2cccc3c(C)cc(C)nc23)c1Cl` (stereo unspecified) gave a melting point of 64 to 67 °C.
In turn, `CCOC(C#N)c1ccc2ccccc2c1` (stereo unspecified) registered a melting point of 53 to 54 °C.
In turn, `Nc1cnc(N2CCN(CCCC(=O)c3ccc(F)cc3)CC2)cc1N` yielded a melting point of 166 to 169 °C.
In turn, `CCCC[C@H](NC(=O)C(CSC(C)=O)C(F)(F)F)C(=O)O` (stereo partly specified) showed a melting point of 123 to 125 °C.
`COc1cc2cn(CC(O)CO)nc2cc1OC` (stereo unspecified) came in with a melting point of 113 to 115 °C.
In turn, `COc1ccc2[nH]cc(C3=CCC(N4CCN(c5cccc(Cl)n5)CC4)CC3)c2c1` (stereo unspecified) came in with a melting point of 210 to 213 °C.
As for `CCCCCCCCCCCC1CNc2cc(C(=O)O)ccc21` (racemic), the figure is 107 to 111 °C.
On to `Nc1nc(NCc2ccccc2)c2ncn(C3C=CC(CO)C3)c2n1` (stereo unspecified), for which the melting point lay within 174 to 176 °C.
As for `O=C(C=Cc1ccccc1)NNC(=O)C=Cc1ccccc1`, the figure is 267 to 268 °C.
As for `CCC(=O)c1c(O)c(CNC(C)=O)cc2c1CCCC2`, the figure is 136 to 140 °C; as for `Nc1nc2c(ncn2COCCO)c(=S)[nH]1`, 251 to 254 °C; as for `CCCOc1ccc(S(=O)(=O)NCCc2c[nH]cn2)cc1-c1nc2cc(Cl)c([N+](=O)[O-])cc2c(=O)[nH]1`, 140 to 144 °C.
The figure for `CC(C)CCCC(C)CCOc1cc(CCl)c(OCCC(C)CCCC(C)C)cc1CCl` (stereo unspecified) is 55 °C.
As for `CC1(C(=O)c2c[nH]c3ncc(-c4cccs4)nc23)CCCCC1`, the melting point lay in the range of 224 to 225 °C.
Consider `CCCn1cc2c(C3C(=O)Nc4ccc(Br)cc43)nc(NCc3ccncc3)nc2n1` (stereo unspecified), for which the melting point is > 300 °C.
In turn, `O=c1ccccn1[C@@H]1c2cc(C(F)(F)F)ccc2OC(CF)(CF)[C@H]1O` (relative stereo) had a melting point of 210 to 212 °C.
`CCS(=O)(=O)Nc1cccc(SCc2ccccc2)n1`: the melting point lay in the range of 87 to 92 °C.
`CC(NCCCO)c1ccc(C2CCC(N(C)C(=O)c3ccc(Cl)cc3)CC2)cc1` (stereo unspecified) had a melting point of 118 to 120 °C.
Regarding `CCC(O)(CC)c1cccc(COc2ccc3c(-c4ccoc4)cc(C#N)cc3c2)n1`, the melting point was in the range of 115 to 116 °C.
`COc1ccc(-c2cc3ccccc3[nH]2)cc1NCc1cccc([N+](=O)[O-])c1` showed a melting point of 160 to 162 °C.
The molecule `CCn1cc(C(=O)NCc2ccc(Cl)cc2)c(=O)c2ccsc21` showed a melting point of 183 to 184 °C.
In turn, `C=C(c1ccccc1)c1ccc(N(C)C)cc1` yielded a melting point of 51 to 52 °C.
`CON=C(C1=NCCO1)c1ccccc1Oc1ccc(C(F)(F)F)cn1`: the melting point is 97 to 100 °C.
With `CCCCOC(=O)c1cn2ccnc2s1`, the melting point was 84 to 86 °C.
With `Cc1nc(=O)[nH]c2c(-c3ccccc3)[nH]c(C)c12`, the melting point is 290 to 294 °C.
`Fc1ccc(Oc2cnc3c(-c4ccccc4Cl)n[nH]c3n2)c(F)c1` displayed a melting point of 240 to 242 °C.
The figure for `Cc1ccc(Cl)cc1NC(=S)Nc1nc(C)c(C)s1` is 188 to 189 °C; for `CCC1CC2=CC(OC(=O)c3ccc([N+](=O)[O-])cc3)CCC2C2CCC3(C)C(O)CCC3C12` (stereo unspecified) it is 135 to 136 °C.
As for `COC(=O)C(=C\c1ccc(OC2CCCC2)c(OC)c1)/C(=C\c1ccccc1)C(N)=O`, the figure is 158 to 159 °C; as for `O=c1c2cccnc2n(-c2cccc([N+](=O)[O-])c2)c(=O)n1Cc1ccccc1`, 219 to 220 °C; as for `Cc1c(-c2ccc(O)cc2)n(C(=O)c2ccc(OCCN3CCCCC3)cc2)c2ccc(O)cc12`, 127 to 130 °C.
As for `CC(C(=O)NCCN(C)C)c1cccc(C(=O)c2cc3ccsc3s2)c1` (stereo unspecified), the figure is 160 °C; as for `CCCn1nc2c(N)nc3ccccc3c2c1CCCC1=CCN(Cc2ccccc2)C1`, 150 to 152 °C; as for `O=C(O)/C=C\C=C(c1ccccc1F)c1ccccc1F`, 147 to 148 °C.
Consider `CC(=O)c1c(C#N)nn(-c2c(Cl)cc(OC(F)(F)F)cc2Cl)c1N`, for which the melting point was in the range of 192 to 193 °C.
Take `CCOC(=O)c1cc(NC(=O)C(Cc2cscn2)NC(=O)OC(C)(C)C)c[nH]1` (stereo unspecified): the melting point is 217 to 220 °C.
